Values quoted from earlier work as cited in US6306864A, “Atropisomers of 3-aryl-4(3H)-quinazolinones and their use as AMPA-receptor antagonists” (Pfizer Inc., priority 2000, dated 2001).

What was measured:
[1] = tested on: rat global ischemia models
[2] = tested on: global and focal ischemic damage; conditions: focal and global ischemia models

| SMILES | neuroprotection in rat global ischemia models [1] | prevention of global and focal ischemic damage [2] |
| --- | --- | --- |
| CC1=NN=C(c2ccc(N)cc2)c2cc3c(cc2C1)OCO3 [GKYI 52466] | effective neuroprotective agent |  |
| NS(=O)(=O)c1cccc2c1c([N+](=O)[O-])cc1[nH]c(=O)c(=O)[nH]c12 [NBQX, 2,3-dihydroxy-6-nitro-7-sulfamoylbenzo[f-]quinoxaline] |  | effective in preventing global and focal ischemic damage |
